Data set [1] in a line: Modulation of alternative complement pathway system assessed as hemoglobin release by spectrophotometry.
Data set [2] in a line: Modulation of classical complement pathway system assessed as hemoglobin release by spectrophotometry.
The next data set deals with Staphylococcus aureus. Nature of the data set: Antimicrobial activity against Staphylococcus aureus. In kind it is functional.
In another data set the test system is Proteus vulgaris. Put plainly: Antimicrobial activity against Proteus vulgaris. In kind it is functional.
The test system of the next data set is Pseudomonas aeruginosa. Put plainly: Antimicrobial activity against Pseudomonas aeruginosa. In kind it is functional.
In data set [3] the test system is Mycolicibacterium fortuitum. Nature of the data set: Antimicrobial activity against Mycobacterium fortuitum. Format: functional.
The subject of another data set is Escherichia coli. Nature of the data set: Antimicrobial activity against Escherichia coli. In kind it is functional.
The nature of data set [4]: Selectivity index, ratio of CC50 for human MT4 cells to IC50 for HIV infected in human MT4 cells. In kind it is functional.
The test system of another data set is Simplexvirus. Nature of the data set: Antiviral activity against HSV up to 200 ug/mL by extracellular virucidal assay. Format: functional, organism-based.
A short description of data set [5]: Antioxidant activity assessed as superoxide radical anion scavenging activity. Format: functional.
Data set [6] has as its system Human immunodeficiency virus. Nature of the data set: Antiviral activity against HIV infected in human MT4 cells assessed as inhibition of virus-induced cytopathic effect by MTT assay. Format: functional, organism-based. Conditions: Human immunodeficiency virus 1, MT4. Background: Protection from cytopathic effect is a common read-out in antiviral testing.
A short description of data set [7]: Cytotoxicity against human MT4 cells by MTT assay. Format: cell-based.
Another data set relates to Enterobacter cloacae. Nature of the data set: Antimicrobial activity against Enterobacter cloacae. Format: functional.
The next data set has as its system Klebsiella pneumoniae. Put plainly: Antimicrobial activity against Klebsiella pneumoniae. In kind it is functional.
The next data set has as its system Candida albicans. Nature of the data set: Antimicrobial activity against Candida albicans. Format: functional.
The subject of another data set is Salmonella paratyphi. Nature of the data set: Antimicrobial activity against Salmonella paratyphi. In kind it is functional, Salmonella enterica subsp. enterica serovar Paratyphi A. Conditions: Salmonella enterica.
The next data set concerns Bacillus cereus. Put plainly: Antimicrobial activity against Bacillus cereus. In kind it is functional.
The test system of another data set is Streptococcus pyogenes. Nature of the data set: Antimicrobial activity against Streptococcus pyogenes. Format: functional.

Values after ≈ are worked out from the molar mass of the structure shown. Active and inactive are the calls of the source. The rule behind the calls is not given here.

For `Oc1cc(O)c2c(c1)O[C@H](c1cc(O)c(O)c(O)c1)[C@H](O)C2` [EPIGALLOCATECHIN], the IC50 in data set [1] is 179 µM; in data set [2], 19.6 µM; in data set [5], 3.4 µM; in data set [6], over 16.1 µg/mL. The MBC in the data set with Staphylococcus aureus is over 100 µg/mL; in the data set on Proteus vulgaris, 100 µg/mL (≈ 327 µM); against Pseudomonas aeruginosa it was over 100 µg/mL; in [3], over 100 µg/mL; in the data set on Escherichia coli, over 100 µg/mL; in the data set with Enterobacter cloacae, over 100 µg/mL. The MBC in the data set with Klebsiella pneumoniae is 100 µg/mL (≈ 327 µM); against Candida albicans, over 100 µg/mL; in the data set on Salmonella paratyphi, over 100 µg/mL. In addition, the MIC with Staphylococcus aureus was over 100 µg/mL; in the data set with Proteus vulgaris it was 50 µg/mL (≈ 163 µM); against Pseudomonas aeruginosa it was over 100 µg/mL; in data set [3], over 100 µg/mL; against Escherichia coli, over 100 µg/mL; in the data set with Enterobacter cloacae it was over 100 µg/mL. The values for the MIC in the data set with Klebsiella pneumoniae, in the data set with Candida albicans and against Salmonella paratyphi were 100 µg/mL (≈ 327 µM), over 100 µg/mL and over 100 µg/mL, respectively. For the same compound, in data set [4], the “Ratio CC50/IC50” value is under 1. Also, in the data set with Simplexvirus, the result was inactive. In data set [7], this compound showed a CC50 of 16.1 µg/mL (≈ 52.6 µM).

Take `Oc1cc(O)c2c(c1)O[C@@]1(c3ccc(O)c(O)c3)Oc3cc(O)c4c(c3[C@@H]2[C@H]1O)O[C@H](c1ccc(O)c(O)c1)[C@@H](O)C4` [PROANTHOCYANIDIN A1]: the IC50 in data set [1] was 105 µM; in data set [2], 57.1 µM; in data set [5], 14.7 µM; in data set [6], 14 µg/mL (≈ 24.3 µM). Further, the MBC (against Staphylococcus aureus; with Pseudomonas aeruginosa; in data set [3]; in the data set on Escherichia coli; against Enterobacter cloacae; against Candida albicans) was over 100 µg/mL each time. The compound further displayed an MBC against Salmonella paratyphi of over 100 µg/mL. The minimum inhibitory concentration (MIC) against Staphylococcus aureus is over 100 µg/mL; against Proteus vulgaris it was 50 µg/mL (≈ 86.7 µM); in the data set with Pseudomonas aeruginosa it was over 100 µg/mL; in data set [3], over 100 µg/mL; in the data set on Escherichia coli it was over 100 µg/mL; against Enterobacter cloacae, over 100 µg/mL. The MIC against Candida albicans and against Salmonella paratyphi was over 100 µg/mL in each case. The “Ratio CC50/IC50” value in [4] was determined as 10. Further, in the data set on Simplexvirus, the result was inactive. Besides, the CC50 in [7] was 144 µg/mL (≈ 250 µM).

Consider `Oc1cc(O)c2c(c1)O[C@@]1(c3ccc(O)c(O)c3)Oc3cc(O)c4c(c3[C@@H]2[C@H]1O)O[C@H](c1ccc(O)c(O)c1)[C@H](O)C4` [PROANTHOCYANIDIN A2], for which the IC50 in data set [1] is 113 µM; in data set [2], 11.6 µM; in data set [5], 17.8 µM; in [6], 5.8 µg/mL (≈ 10.1 µM). Moreover, the MBC was over 100 µg/mL against Staphylococcus aureus; over 100 µg/mL with Pseudomonas aeruginosa; over 100 µg/mL in data set [3]; over 100 µg/mL against Escherichia coli; 50 µg/mL (≈ 86.7 µM) against Streptococcus pyogenes; over 100 µg/mL in the data set with Enterobacter cloacae. The MBC in the data set with Candida albicans and in the data set on Salmonella paratyphi was over 100 µg/mL throughout. Also, the MIC against Staphylococcus aureus was over 100 µg/mL; with Pseudomonas aeruginosa it was over 100 µg/mL; in data set [3] it was over 100 µg/mL; with Bacillus cereus it was 100 µg/mL (≈ 173 µM); against Escherichia coli, over 100 µg/mL; in the data set on Streptococcus pyogenes, 50 µg/mL (≈ 86.7 µM). The minimum inhibitory concentration (MIC) against Enterobacter cloacae, against Candida albicans and against Salmonella paratyphi was over 100 µg/mL in each case. The “Ratio CC50/IC50” value in data set [4] amounted to 24. Besides, in the data set on Simplexvirus, the result was inactive. Also, it took 138 µg/mL (≈ 239 µM) to reach half-maximal cytotoxicity in data set [7] (CC50).

`Oc1cc(O)c2c(c1)O[C@H](c1ccc(O)c(O)c1)[C@H](O)[C@H]2c1c(O)cc(O)c2c1O[C@H](c1ccc(O)c(O)c1)[C@H](O)C2` [PROCYANIDIN B2]: the outcome (in data set [1]; in the data set with Simplexvirus) was inactive. The IC50 in data set [2] came out at 58 µM; in data set [5], 10.5 µM; in data set [6] it was 17.2 µg/mL (≈ 29.7 µM). In addition, the MBC against Staphylococcus aureus is over 100 µg/mL; against Pseudomonas aeruginosa it was over 100 µg/mL; in data set [3] it was over 100 µg/mL; against Escherichia coli it was over 100 µg/mL; against Streptococcus pyogenes, 100 µg/mL (≈ 173 µM); in the data set on Enterobacter cloacae it was over 100 µg/mL. Further, the MBC in the data set on Candida albicans and in the data set on Salmonella paratyphi was over 100 µg/mL each time. For the same compound, the MIC with Staphylococcus aureus was over 100 µg/mL; with Pseudomonas aeruginosa it was over 100 µg/mL; in [3], over 100 µg/mL; against Escherichia coli, over 100 µg/mL; with Streptococcus pyogenes it was 100 µg/mL (≈ 173 µM); against Enterobacter cloacae, over 100 µg/mL. The minimum inhibitory concentration (MIC) against Candida albicans and in the data set with Salmonella paratyphi was over 100 µg/mL in each case. Further, the “Ratio CC50/IC50” value in data set [4] came to 8. In data set [7], the cytotoxic concentration (CC50) was 135 µg/mL (≈ 234 µM).

As to `Oc1cc(O)c2c(c1)O[C@H](c1ccc(O)c(O)c1)[C@H](O)[C@H]2c1c(O)cc(O)c2c1O[C@H](c1ccc(O)c(O)c1)[C@H](O)[C@H]2c1c(O)cc(O)c2c1O[C@H](c1ccc(O)c(O)c1)[C@H](O)C2` [PROCYANIDIN C1], the half-maximal inhibitory concentration (IC50) in data set [1] worked out at 85.5 µM; in data set [2] it was 6 µM; in data set [5], 10.7 µM; in data set [6], 4.3 µg/mL (≈ 4.96 µM). In addition, the MBC in the data set with Staphylococcus aureus was over 100 µg/mL; with Pseudomonas aeruginosa it was over 100 µg/mL; in data set [3] it was over 100 µg/mL; against Escherichia coli, over 100 µg/mL; against Streptococcus pyogenes it was 100 µg/mL (≈ 115 µM); with Enterobacter cloacae, over 100 µg/mL. For the same compound, the MBC against Candida albicans and in the data set with Salmonella paratyphi was over 100 µg/mL in each case. In addition, the minimum inhibitory concentration (MIC) against Staphylococcus aureus is over 100 µg/mL; in the data set with Pseudomonas aeruginosa, over 100 µg/mL; in data set [3] it was over 100 µg/mL; with Escherichia coli, over 100 µg/mL; in the data set with Streptococcus pyogenes, 100 µg/mL (≈ 115 µM); against Enterobacter cloacae, over 100 µg/mL. In addition, the MIC in the data set with Candida albicans and in the data set with Salmonella paratyphi was over 100 µg/mL each time. Also, in [4], the “Ratio CC50/IC50” value is given as 5. In addition, in the data set on Simplexvirus, the result was inactive. In data set [7], this compound yielded a CC50 of 16.5 µg/mL (≈ 19 µM).

Broadly, the IC50 is the concentration that inhibits the measured activity by half. As usually defined, the MIC is the lowest concentration that inhibits growth of the organism. Lower therefore signals a more susceptible organism. As a reminder, the CC50 is the concentration at which the toxic effect on the cells reaches its halfway point.

The record behind these values is ChEMBL document CHEMBL1144064, “Biological evaluation of proanthocyanidin dimers and related polyphenols” (J Nat Prod, 1999).
